Assays:
Assay in all cases: relative viability (nuclei count vs DMSO), 5 days (fraction); higher = more cells survive
Gemcitabine + Phenformin = compound: Nc1ccn([C@@H]2O[C@H](CO)[C@@H](O)C2(F)F)c(=O)n1 [Gemcitabine] + N=C(N)NC(=N)NCCc1ccccc1 [Phenformin] (partner 250 µM)
How it was run: (§1)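 Relative viability equals treated-well nuclei counts divided by vehicle-well nuclei counts. Counts came from 4× images of lung cancer cell lines grown in 1536-well plates for 5 days after pin-tool dosing on the day after seeding. Dosing used one drug alone or a fixed anchor-drug dose plus five library-drug doses (not always all listed) in √10 steps, and values are medians of duplicate plates.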

Gemcitabine + Olaparib = compound: Nc1ccn([C@@H]2O[C@H](CO)[C@@H](O)C2(F)F)c(=O)n1 [Gemcitabine] + O=C(c1cc(Cc2n[nH]c(=O)c3ccccc23)ccc1F)N1CCN(C(=O)C2CC2)CC1 [Olaparib] (partner 8 µM)
How it was run: as §1

Gemcitabine + Trametinib = compound: Nc1ccn([C@@H]2O[C@H](CO)[C@@H](O)C2(F)F)c(=O)n1 [Gemcitabine] + CC(=O)Nc1cccc(-n2c(=O)n(C3CC3)c(=O)c3c(Nc4ccc(I)cc4F)n(C)c(=O)c(C)c32)c1 [Trametinib] (partner 0.02 µM)
How it was run: as §1

Gemcitabine = compound: Nc1ccn([C@@H]2O[C@H](CO)[C@@H](O)C2(F)F)c(=O)n1 [Gemcitabine]
How it was run: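 On vehicle-anchored 1536-well plates, lung cancer cell lines held overnight at 37 °C were pinned with five library-drug doses (not always all listed) spaced by √10. With no medium change over 5 days, they were then fixed, permeabilised and Hoechst-stained in one step and imaged at 4×. MetaXpress counted nuclei, and viability is the median across plates of treated-well over vehicle-well nuclei. Acceptance needed control CV below 25% and at least one doubling.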

Cell Line	relative viability (Gemcitabine + Phenformin; first compound 0.001 µM)	relative viability (Gemcitabine + Phenformin; first compound 0.003162 µM)	relative viability (Gemcitabine + Phenformin; first compound 0.01 µM)	relative viability (Gemcitabine + Phenformin; first compound 0.03162 µM)	relative viability (Gemcitabine + Phenformin; first compound 0.1 µM)	relative viability (Gemcitabine + Olaparib; first compound 0.001 µM)	relative viability (Gemcitabine + Olaparib; first compound 0.003162 µM)	relative viability (Gemcitabine + Olaparib; first compound 0.01 µM)	relative viability (Gemcitabine + Olaparib; first compound 0.03162 µM)	relative viability (Gemcitabine + Olaparib; first compound 0.1 µM)	relative viability (Gemcitabine + Trametinib; first compound 0.001 µM)	relative viability (Gemcitabine + Trametinib; first compound 0.003162 µM)	relative viability (Gemcitabine + Trametinib; first compound 0.01 µM)	relative viability (Gemcitabine + Trametinib; first compound 0.03162 µM)	relative viability (Gemcitabine + Trametinib; first compound 0.1 µM)	relative viability (Gemcitabine; 0.001 µM)	relative viability (Gemcitabine; 0.003162 µM)	relative viability (Gemcitabine; 0.01 µM)	relative viability (Gemcitabine; 0.03162 µM)	relative viability (Gemcitabine; 0.1 µM)
LCLC-97TM1	0.376	0.406	0.179	0.187	0.144	0.331	0.178	0.0884	0.0632	0.0703	0.169	0.143	0.12	0.126	0.0828	0.909	0.455	0.139	0.0859	0.0792
HARA	0.498	0.556	0.445	0.222	0.0544	0.927	1.1	0.535	0.162	0.0774	0.592	0.635	0.797	0.143	0.107	1.03	0.984	0.971	0.469	0.118
HCC-78	0.581	0.538	0.285	0.209	0.233	0.715	0.335	0.213	0.21	0.181	0.749	0.42	0.373	0.274	0.231	0.849	0.595	0.436	0.255	0.237
NCI-H1666	0.559	0.476	0.383	0.378	0.355	0.777	0.707	0.748	0.76	0.597	0.795	0.946	0.773	0.655	0.554	0.965	1	0.909	0.61	0.412
NCI-H2347	0.381	0.346	0.304	0.275	0.221	0.603	0.529	0.496	0.383	0.373	0.305	0.255	0.276	0.258	0.2	1	0.915	0.68	0.492	0.381
NCI-H838	0.634	0.675	0.521	0.19	0.0985	0.787	0.842	0.534	0.282	0.12	0.51	0.621	0.561	0.274	0.127	0.987	1.15	1.05	0.467	0.153
NCI-H2023	0.35	0.327	0.192	0.0945	0.0668	0.505	0.414	0.236	0.161	0.0679	0.567	0.577	0.266	0.152	0.0796	1.03	0.92	0.444	0.103	0.0642
201T	0.43	0.455	0.427	0.334	0.263	0.884	0.844	0.826	0.302	0.262	0.753	0.714	0.736	0.691	0.324	0.939	0.958	0.988	0.697	0.482
NCI-H1915	0.353	0.356	0.344	0.279	0.214	0.246	0.255	0.258	0.233	0.192	0.317	0.308	0.286	0.281	0.188	0.981	1.03	0.98	0.865	0.475
NCI-H2009	0.496	0.317	0.198	0.175	0.146	0.717	0.436	0.191	0.102	0.0738	0.268	0.327	0.16	0.115	0.088	1.01	0.746	0.24	0.167	0.114
BEN	0.262	0.23	0.243	0.222	0.202	0.946	0.421	0.234	0.193	0.145	1.02	0.615	0.311	0.245	0.226	0.973	0.726	0.282	0.152	0.117
PC-14	0.558	0.113	0.0527	0.0312	0.0491	0.256	0.13	0.0358	0.0472	0.0357	0.885	0.279	0.037	0.0374	0.0267	0.97	0.407	0.151	0.0526	0.0522
SK-MES-1	0.552	0.249	0.191	0.158	0.154	0.587	0.22	0.165	0.199	0.161	0.605	0.551	0.25	0.237	0.178	0.945	0.473	0.216	0.203	0.17
NCI-H727	0.46	0.448	0.348	0.419	0.322	0.816	0.592	0.35	0.464	0.426	0.447	0.355	0.33	0.327	0.328	0.802	0.567	0.347	0.332	0.32
NCI-H1355	0.444	0.297	0.214	0.202	0.178	0.667	0.441	0.141	0.157	0.151	0.426	0.363	0.245	0.189	0.154	0.987	0.818	0.392	0.187	0.152
NCI-H1975	0.416	0.268	0.176	0.129	0.122	0.755	0.78	0.433	0.179	0.139	0.305	0.447	0.367	0.124	0.135	0.984	1.1	0.648	0.216	0.174
LK-2	0.834	0.43	0.313	0.142	0.142	0.878	0.722	0.386	0.153	0.148	0.926	0.65	0.731	0.206	0.167	0.997	0.915	0.708	0.255	0.187
NCI-H661	0.282	0.263	0.231	0.197	0.226	0.78	0.783	0.655	0.274	0.232	0.568	0.606	0.464	0.281	0.223	1.05	0.941	0.808	0.305	0.259

Cell Line	relative viability (Gemcitabine + Phenformin; first compound 0.001 µM)	relative viability (Gemcitabine + Phenformin; first compound 0.003162 µM)	relative viability (Gemcitabine + Phenformin; first compound 0.01 µM)	relative viability (Gemcitabine + Phenformin; first compound 0.03162 µM)	relative viability (Gemcitabine + Phenformin; first compound 0.1 µM)	relative viability (Gemcitabine + Olaparib; first compound 0.001 µM)	relative viability (Gemcitabine + Olaparib; first compound 0.003162 µM)	relative viability (Gemcitabine + Olaparib; first compound 0.01 µM)	relative viability (Gemcitabine + Olaparib; first compound 0.03162 µM)	relative viability (Gemcitabine + Olaparib; first compound 0.1 µM)	relative viability (Gemcitabine + Trametinib; first compound 0.001 µM)	relative viability (Gemcitabine + Trametinib; first compound 0.003162 µM)	relative viability (Gemcitabine + Trametinib; first compound 0.01 µM)	relative viability (Gemcitabine + Trametinib; first compound 0.03162 µM)	relative viability (Gemcitabine + Trametinib; first compound 0.1 µM)	relative viability (Gemcitabine; 0.001 µM)	relative viability (Gemcitabine; 0.003162 µM)	relative viability (Gemcitabine; 0.01 µM)	relative viability (Gemcitabine; 0.03162 µM)	relative viability (Gemcitabine; 0.1 µM)
HCC-366	0.622	0.662	0.144	0.0348	0.0327	0.332	0.389	0.124	0.0348	0.0152	0.284	0.392	0.0497	0.0318	0.0203	0.992	0.939	0.535	0.0641	0.0314
HOP-62	0.67	0.492	0.239	0.0719	0.0597	0.516	0.387	0.0703	0.0534	0.0449	0.366	0.405	0.24	0.122	0.0817	0.923	0.855	0.176	0.103	0.0838
NCI-H1944	0.225	0.193	0.169	0.161	0.132	0.459	0.469	0.358	0.21	0.134	0.418	0.416	0.364	0.28	0.154	1	0.995	0.821	0.496	0.235
SW 1573	0.353	0.202	0.104	0.0718	0.0652	0.413	0.295	0.0949	0.102	0.0546	0.46	0.405	0.117	0.0639	0.0615	0.911	0.736	0.239	0.101	0.0671
LU99A	0.857	0.949	0.805	0.801	0.789	0.255	0.272	0.286	0.226	0.221	0.575	0.635	0.563	0.594	0.387	0.864	1.08	0.932	1.01	0.918
NCI-H647	0.334	0.144	0.058	0.0604	0.0397	0.574	0.103	0.0533	0.0536	0.0389	0.404	0.286	0.117	0.0909	0.0535	0.786	0.202	0.0889	0.0675	0.0582
A-427	0.328	0.273	0.16	0.178	0.117	0.756	0.745	0.481	0.259	0.199	0.704	0.799	0.521	0.356	0.223	0.96	0.867	0.584	0.293	0.143
COR-L 105	0.563	0.48	0.308	0.271	0.203	0.692	0.774	0.625	0.357	0.282	0.418	0.463	0.364	0.367	0.345	0.947	0.934	0.572	0.269	0.234
NCI-H441	0.808	0.552	0.269	0.204	0.176	0.651	0.241	0.187	0.161	0.116	0.46	0.318	0.196	0.131	0.132	0.993	0.63	0.292	0.13	0.139
NCI-H2126	0.504	0.422	0.399	0.358	0.216	0.888	0.933	0.867	0.562	0.262	0.59	0.57	0.514	0.418	0.305	0.971	1	0.906	0.77	0.458
EBC-1	–	–	–	–	–	0.73	0.195	0.141	0.116	0.107	–	–	–	–	–	0.791	0.235	0.174	0.138	0.142
ABC-1	0.197	–	0.236	0.186	0.212	–	0.687	0.54	0.427	0.398	–	–	–	–	–	0.965	0.823	0.703	0.291	0.235
NCI-H1563	0.66	0.605	0.53	0.494	0.497	–	–	–	–	–	–	–	–	–	–	0.998	0.983	0.866	0.538	0.49
NCI-H1299	–	–	–	–	–	0.984	1.03	0.962	1	0.937	–	–	–	–	–	0.998	1.05	1	1.02	1.03
A549	0.158	0.0726	0.0184	0.0201	0.0216	0.296	0.279	0.0098	0.0228	0.014	–	–	–	–	–	1.03	0.894	0.0734	0.0244	0.0209
IA-LM	–	–	–	–	–	0.854	0.788	0.797	0.0888	0.0689	–	–	–	–	–	0.963	0.88	0.74	0.108	0.0519
Calu-6	–	–	–	–	–	0.529	0.465	0.24	0.119	0.0919	–	–	–	–	–	0.975	0.649	0.33	0.147	0.129
